In US10906933B2, “Coupled peptide chain for dissolving poorly soluble polypeptides and application thereof for separation and purification in liquid chromatography” (Spec-Chem Industry Inc., priority 2015, dated 2021):

Test: Dissolving capacity evaluation of peptide chains at 2 mg/mL in solvents
Assay type: physicochemical
Details: for Dissolving capacity, ACN:H2O (1:3): 2 mg/mL in ACN:H2O (1:3) solution in HPLC; for Dissolving capacity, DMF: 2 mg/mL in DMF solution; for Dissolving capacity, DMSO: 2 mg/mL in DMSO solution
Description: This test evaluated the dissolving capacity of each group of peptide chain at 2 mg/mL in a DMF solution, a DMSO solution, an ACN:H2O (1:3) solution in HPLC, and an LiOH saturated solution, respectively. The poorly soluble polypeptide chain-linker arm-hydrophilic polypeptide chain in embodiments 1 and 2 were taken as Groups 1 and 2, respectively, and a separate poorly soluble polypeptide chain […] (SEQ ID NO: 1) was taken as a control group, as shown in Table 3: […]

[1] = listed as ILVLLIII (SEQ ID NO: 1) 4-HMBA-DDDDDEEKEEEE (SEQ ID NO: 2)

Dissolving capacity, ACN:H2O (1:3) [1] | Dissolving capacity, DMF [1] | Dissolving capacity, DMSO [1] | Sequence | Dissolving capacity, ACN:H2O (1:3) | Dissolving capacity, DMF | Dissolving capacity, DMSO | Dissolving capacity, LiOH saturated solution (2 mg/mL in LiOH saturated solution, listed as second group)
– | – | – | ILVLLIII (SEQ ID NO: 1) (Poorly soluble polypeptide) [Group 3, the target peptide, reference compound] | very cloudy with solids precipitating | very cloudy with solids precipitating | very cloudy with solids precipitating | –
clear with no solids precipitating | clear with no solids precipitating | clear with no solids precipitating | ILVLLIII (SEQ ID NO: 1)-HMBA-DDDDDEEKEEEE (SEQ ID NO: 2) [Group 1] | – | – | – | –
– | – | – | ILVLLIII (SEQ ID NO: 1)-HPA-RRRRREDKKKKK (SEQ ID NO: 3) [Group 2] | completely dissolved | solids still precipitated | solids still precipitated | obviously not better than that of the first group
